Measured values taken from patent publication US10654838B2, “Aminopyridine compounds useful as inhibitors of protein prenylation” (INSTITUT NATIONAL DE LA SANTE ET DE LA RECHERCHE MEDICALE …, priority 2014, dated 2020).

Legend:
[1] = tested on: HDJ2; experiment: Western blot analysis of HDJ2 farnesylation; assay type: cell-based, human
[2] = tested on: prelamin A; experiment: Western immunoblotting of prelamin A; assay type: cell-based, human; conditions: HGPS MSCs, optimal concentration
Experimental: Whole-cell lysates of MSC were collected, separated by SDS-PAGE, and transferred onto PVPF membrane by liquid transfer method. Blots were blocked in 10% skim milk (Bio-Rad) in tween 0.1% tris-buffered saline (TTBS) 1× one hour at room temperature. The primary antibodies used were a mouse anti-lamins A/C 1:200 (Millipore, JOL2), a rabbit anti-prelamin A 1/100 (ANTOO45, Diatheva) and a β-actin 1/200000 (Sigma). Membranes were incubated during the night at 4° C. Antigen-antibody binding was detected using horseradish peroxidaseconjugated species-specific secondary antibodies (GE-Healthcare, Little Chalfont, UK) followed by enhanced chemiluminescence Western blotting detection reagents (Perkin-Elmer, Waltham, USA).

[3] = tested on: HGPS MSCs; experiment: Nuclear shape abnormalities (lamin A/C immunostaining); assay type: cell-based, human; conditions: 48 h, lamin A/C staining
Experimental: In the 4-steps protocol, cells were fixed in 4% paraformaldehyde (15 minutes, room temperature) before permeabilization and blocking in PBS supplemented with 0.1% triton X-100 and 1% BSA (Sigma-Aldrich, St. Louis, USA). Primary antibodies were incubated one hour at room temperature in blocking buffer. Antibodies included mouse anti-lamins A/C (clone JOL2, Millipore, Billerica, USA), rabbit anti-prelamin A (ANTOO45, Diatheva) and anti-Ki67 (clone Ki-S5, MAB4190, Millipore, Billerica, USA). Cells were stained with the species-specific fluorophore-conjugated secondary antibody (Invitrogen) (one hour, room temperature) and nuclei were visualized with Hoechst 33342.

[4] = tested on: prelamin A farnesylation (nuclear localization of prelamin A) in HGPS MSCs; experiment: Prelamin A localization cell-based assay; parameters: species or system human; conditions: for EC50: Homo sapiens, 48 h treatment, dose-response
Experimental: 2000 HGPS MSCs were plated in black 384-well clear-bottom plates (Corning). After 48 h of drug treatment, cells were fixed in 4% paraformaldehyde (15 minutes, room temperature). Permeabilization, blocking and primary hybridization steps were done concomitantly in a PBS solution supplemented with 0.1% triton X-100 and 1% BSA (Sigma-Aldrich, St. Louis, USA) and rabbit anti-prelamin A (ANTOO45, Diatheva) overnight at 4° C. Cells were stained with the species-specific fluorophore-conjugated secondary anti-rabbit antibody (Invitrogen) (one hour, room temperature) and nuclei were visualized with Hoechst 33342. These steps were automated using a washing/staining station (ELx405 Biotek, RapidStak Thermo, Multidrop Labsystems). Prelamin A localization was analyzed with an ayScan VTI HCS Reader (Cellomics). The first channel was used for nucleus identification (Hoechst 33342 staining) and the second one to identify prelamin A staining. Pictures were acquired with a 5× objective in high-resolution camera mode and were analyzed using the Spot Detector bioapplication. The robustness of the assay was evaluated using the Z′ factor calculated as ollows Z′=1−[3(SDP+SDN)/(MP−MN)] where MP and MN correspond to the means of the positive (tipifarnib 1 μM) and negative (DMSO 0.1%) controls, respectively, and SDP and SDN correspond to their standard deviation.
The primary screen was conducted on Biocell 1800 (Agilent). […]
Data analysis of the screening was performed using a customized Hiscreen application (Discngine, Paris, France) connected to Spotfire software (Tibco Co). Screening robustness was evaluated by calculating for each plate the Z'factor on the percentage of prelaminA nuclei parameter. […]
This study was performed on MSCs derived from HGPS iPS cells, differentiated as previously described (Blondel et al., 2014, Stem Cells Transl Med, VOL. 3: 510-519) and used after ten passages of amplification. […] A high throughput immunostaining assay was developed to robustly quantify prelamin A expression and localization in 384-well plates. […]

[5] = target: T1, FPPS (Homo sapiens, UniProt P14324); experiment: FPPS activity assay; assay type: biochemical; parameters: endogenous in cells; host or cells: HGPS MSCs (cell lysate); conditions: concentration inducing 50% of the maximum inhibiting effect of the compound
T1 sequence (P14324 1-419): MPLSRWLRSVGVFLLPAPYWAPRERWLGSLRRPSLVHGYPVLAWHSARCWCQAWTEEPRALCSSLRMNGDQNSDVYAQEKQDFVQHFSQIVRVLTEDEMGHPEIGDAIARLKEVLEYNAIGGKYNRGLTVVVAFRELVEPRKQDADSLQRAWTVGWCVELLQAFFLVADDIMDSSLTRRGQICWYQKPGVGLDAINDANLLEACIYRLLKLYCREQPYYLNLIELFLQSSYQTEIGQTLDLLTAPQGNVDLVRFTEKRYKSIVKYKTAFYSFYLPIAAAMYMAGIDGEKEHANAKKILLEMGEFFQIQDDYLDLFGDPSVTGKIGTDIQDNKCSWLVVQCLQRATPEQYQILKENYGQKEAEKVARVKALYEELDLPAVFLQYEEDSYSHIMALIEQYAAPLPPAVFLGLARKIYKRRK
Experimental: (§1) Cell pellet of HGPS MSCs were resuspended in 25 mM Tris-HCl pH 7.4, 1 mM DTT, 1 mM MgCl2, 1 EDTA, 1 mM PMSF and centrifuged at 10,000×g for 10 min at 4° C. Protein content was determined using Lowry's method. Aliquots of cell lysate containing 100 μg of total proteins were incubated with tested substances at 37° C. for 30 min.
FPPS assay was carried out with some modifications of the procedure of Krisans et al. (Krisans et al., 1994, The Journal of biological chemistry VOL. 269: 14165-14169) and described by Gupta et al. (Gupta et al., 1999, Eur J Med Chem, VOL. 43: 2751-2767). Briefly, FPPS was assayed in 150 μL containing 25 mmol/L Hepes, pH=7, 2 mmol/L MgCl2, 1 mmol/L dithiothreitol, 5 mmol/L KF, 1% A noctyl-β-glucopyranoside, 3.3 μmol/L [4-14C] IPP (18 Ci/mmol), 3 μmol/L unlabeled IPP and 20 μmol/L geranyl diphosphate. Reactions were started by adding 40 μL of treated or untreated cell lysate and incubated for 45 min at 37° C. Reactions were stopped by the addition of 150 μL 2.5 mol/L HCl in 80% ethanol containing 100 μg/mL farnesol as a carrier. The samples were hydrolyzed for 30 min at 37° C. to convert the FPP to farnesol and neutralized by the addition of 150 μL of 10% NaOH. The reaction product (farnesol) was extracted into 1 mL of N-hexane and an aliquot (200 μL) of the organic phase was used for radioactivity counting. Parallel samples were assayed to evaluate the total and the nonspecific radioactivity. In all experiments, enzyme assays were carried out in triplicate.

[6] = tested on: HGPS MSCs; experiment: Live cell imaging (cell density); assay type: cell-based, human; conditions: 7 days
Experimental: HGPS MSCs were seeded at 2500 cells per well in 96-well plates and cultivated during 7 days in presence of the drugs. Cell density was monitored using an IncuCyte ZOOM microscope (Essen Bioscience). Each value corresponds to the mean of cell densities of four pictures taken in three independent wells.

[7] = target: T2, HMGCR (Homo sapiens, UniProt P04035); experiment: HMGCR colorimetric activity assay; assay type: biochemical
T2 construct: oxidation of NADPH by the catalytic subunit of HMGCR in the presence of the substrate HMG CoA; purchased Sigma-Aldrich
T2 sequence (P04035 340-888 limits assumed): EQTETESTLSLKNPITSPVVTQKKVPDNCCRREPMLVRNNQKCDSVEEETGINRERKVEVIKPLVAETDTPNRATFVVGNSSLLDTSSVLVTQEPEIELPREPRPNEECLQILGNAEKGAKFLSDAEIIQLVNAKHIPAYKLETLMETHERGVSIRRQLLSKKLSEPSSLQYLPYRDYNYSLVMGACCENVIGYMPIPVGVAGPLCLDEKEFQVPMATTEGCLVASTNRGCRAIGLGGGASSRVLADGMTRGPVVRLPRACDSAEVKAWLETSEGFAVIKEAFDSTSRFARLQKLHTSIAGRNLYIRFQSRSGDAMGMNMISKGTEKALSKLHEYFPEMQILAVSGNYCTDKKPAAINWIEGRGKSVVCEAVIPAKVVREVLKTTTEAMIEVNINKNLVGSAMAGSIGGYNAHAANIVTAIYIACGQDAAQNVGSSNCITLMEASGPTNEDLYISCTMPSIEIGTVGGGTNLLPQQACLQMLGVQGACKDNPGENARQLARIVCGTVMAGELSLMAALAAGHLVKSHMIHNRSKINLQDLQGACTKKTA
Experimental: HMGCR activity was measured using GCoA Reductase Assay Kit (Sigma-Aldrich) according to the manufacturer's protocol. The assay is based on the spectrophotometric measurement of the decrease in absorbance at 340 nm, which represents the oxidation of NADPH by the catalytic subunit of HMGCR in the presence of the substrate HMG CoA.

[8] = target: T3, FT (Homo sapiens, UniProt P49354+P49356); experiment: FT activity assay (Farnesyltransferase [3H] SPA); assay type: biochemical; conditions: concentration inducing 50% of the maximum inhibiting effect of the compound
T3 construct: Reactions were started by adding 40 μL of treated or untreated cell lysate; endogenous in cells; host or cells: HGPS MSCs (cell lysate)
Experimental: as §1
FT activity was determined by Famesyltransferase [3H] SPA enzyme assay (Amersham Life Science, Buckinghamshire, England). Briefly, FT activity was assayed in 20 μl of assay buffer containing 50 mmol/L Hepes, 30 mmol/L MgCl2, 20 mmol/L KCl and 5 mmol/L dithiothreitol, 20 μl of [3H]-FPP (12 pmol) and 20 μl of biotin lamin B. Reactions were started by adding 40 μL of treated or untreated cell lysate and incubated for 1 hour at 37° C. Reactions were stopped by the addition of 150 μL of stop reagent containing SPA bead and counted in a scintillation counter. FT activity was expressed as pmoles of incorporated [3H]-FPP into biotin lamin-B peptide per minute per milligram of total proteins (pmol/min/mg prot). Parallel samples were assayed to evaluate the total and the nonspecific radioactivity. In all experiments enzyme assays were carried out in triplicate.

Row | SMILES | EC50 [4] | unfarnesylated form of HDJ2 [1] | rescue of nuclear shape abnormalities [3] | other results
1 | CCCc1c(C(=O)N2CCN(c3cc(N(C)c4cccc(C)c4)ncn3)CC2)cnn1-c1ccccc1 [Di-AP2, {4-[6-(Methyl-m-tolyl-amino)-pyrimidin-4-yl]-piperazin-1-yl}-(1-phenyl-5-propyl-1H-pyrazol-4-yl)-methanone] |  | increase of the unfarnesylated form of the protein | restored significantly | prelamin A level (Western blot) [2]: increased
2 | CCOC(=O)CN1CCN(c2nccc(C(C#N)c3ccccn3)n2)CC1 (stereo not drawn) [Mono-AP25, {4-[4-(Cyano-pyridin-2-yl-methyl)-pyrimidin-2-yl]-piperazin-1-yl}-acetic acid ethyl ester] |  |  |  | efficiency on prelamin A farnesylation (in words) ([4]; dose response): decrease in efficiency
3 | N#CC(c1ccccn1)c1ccnc(N2CCC(O)(Cc3ccccc3)CC2)n1 (stereo not drawn) [Mono-AP3, [2-(4-Benzyl-4-hydroxy-piperidin-1-yl)-pyrimidin-4-yl]-pyridin-2-yl-acetonitrile] |  | increase of the unfarnesylated form of the protein | restoring HGPS MSCs nuclear shape defects at levels not significantly different from the FTI tipifarnib | IC50 [5]: 5.54 µM; cytostatic effect in long term live imaging cultures [6]: less cytostatic than the FTI tipifarnib; IC50 (μM) HMGCR [7]: No inhibition; IC50 [8]: 0.35 µM

The next lines start with results.

Row | EC50 [4] | SMILES | unfarnesylated form of HDJ2 [1] | rescue of nuclear shape abnormalities [3] | other results
4 | 2000 nM | N#CC(c1ccccn1)c1ccnc(N2CCN(Cc3cccc(F)c3)CC2)n1 (stereo not drawn) [Mono-AP28, {2-[4-(3-Fluoro-benzyl)-piperazin-1-yl]-pyrimidin-4-yl}-pyridin-2-yl-acetonitrile] |  |  | 
5 | 1500 nM | Cc1cccc(CN2CCN(c3nccc(C(C#N)c4ccccn4)n3)CC2)c1 (stereo not drawn) [Mono-AP21, {2-[4-(3-Methyl-benzyl)-piperazin-1-yl]-pyrimidin-4-yl}-pyridin-2-yl-acetonitrile] |  |  | 
